Our source for the Ki values is BindingDB's records for doi:10.1124/mol.51.1.109 (Max-Planck Institute For Experimental Medicine, 1997).

For assay [1], the target named is T1, P2X purinoceptor 4 (Rattus norvegicus, UniProt P51577).
T1 sequence (P51577 whole entry): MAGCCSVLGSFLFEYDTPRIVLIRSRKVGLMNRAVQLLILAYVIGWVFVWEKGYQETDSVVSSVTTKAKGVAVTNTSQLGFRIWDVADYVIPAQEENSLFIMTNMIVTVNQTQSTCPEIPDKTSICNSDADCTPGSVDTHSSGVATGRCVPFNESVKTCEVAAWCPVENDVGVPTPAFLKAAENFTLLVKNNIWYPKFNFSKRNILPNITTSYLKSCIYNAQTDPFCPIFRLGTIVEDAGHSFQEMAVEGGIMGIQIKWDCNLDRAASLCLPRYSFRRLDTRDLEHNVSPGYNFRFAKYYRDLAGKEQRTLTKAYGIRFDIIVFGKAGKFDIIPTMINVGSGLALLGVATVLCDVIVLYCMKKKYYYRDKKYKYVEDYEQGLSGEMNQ

Assay [2] deals with T2, P2X purinoceptor 4 (Homo sapiens, UniProt Q99571).
T2 sequence (Q99571 whole entry): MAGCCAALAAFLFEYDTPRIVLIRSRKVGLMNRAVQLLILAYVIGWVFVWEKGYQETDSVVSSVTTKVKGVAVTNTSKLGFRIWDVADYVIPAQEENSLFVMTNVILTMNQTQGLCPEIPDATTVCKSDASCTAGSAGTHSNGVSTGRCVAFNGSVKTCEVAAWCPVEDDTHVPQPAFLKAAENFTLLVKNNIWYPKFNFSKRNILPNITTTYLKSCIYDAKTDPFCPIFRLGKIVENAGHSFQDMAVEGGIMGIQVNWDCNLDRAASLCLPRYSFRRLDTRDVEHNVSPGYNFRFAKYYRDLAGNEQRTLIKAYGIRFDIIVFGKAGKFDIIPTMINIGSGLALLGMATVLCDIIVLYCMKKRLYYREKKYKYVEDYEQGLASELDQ

By Ki is commonly meant the equilibrium dissociation constant of an inhibitor or competing ligand from its target. Low readings indicate a stronger hold on the target, high ones a looser hold on the target. `Nc1c(S(=O)(=O)O)cc(Nc2ccc(Nc3nc(Cl)nc(Nc4cccc(S(=O)(=O)O)c4)n3)c(S(=O)(=O)O)c2)c2c1C(=O)c1ccccc1C2=O`: the Ki at P2X purinoceptor 4 [1] came out at 46.2 nM.

In the case of `Nc1c(S(=O)(=O)O)cc(Nc2ccc(Nc3nc(Cl)nc(Nc4ccccc4S(=O)(=O)O)n3)c(S(=O)(=O)O)c2)c2c1C(=O)c1ccccc1C2=O`, the inhibition constant Ki at P2X purinoceptor 4 [1] was determined as 128 nM.

`Cc1nc(/N=N/c2ccc(S(=O)(=O)O)cc2S(=O)(=O)O)c(COP(=O)(O)O)c(C=O)c1O` displayed an inhibition constant (Ki) at P2X purinoceptor 4 [1] of 500 nM.

Regarding `O=S1(=O)OC(c2cc(Br)c(O)c(Br)c2)(c2cc(Br)c(O)c(Br)c2)c2ccccc21` [NSC_8272], the values for the inhibition constant (Ki) on P2X purinoceptor 4 [1] and at P2X purinoceptor 4 [2] were 301 nM and 78.3 nM, respectively.

Consider `Cc1ccc(C(=O)Nc2ccc(S(=O)(=O)O)c3cc(S(=O)(=O)O)cc(S(=O)(=O)O)c23)cc1NC(=O)c1cccc(NC(=O)Nc2cccc(C(=O)Nc3cc(C(=O)Nc4ccc(S(=O)(=O)O)c5cc(S(=O)(=O)O)cc(S(=O)(=O)O)c45)ccc3C)c2)c1` [suramin], for which the values for the Ki on P2X purinoceptor 4 [1] and on P2X purinoceptor 4 [2] were 500 nM and 178 nM, respectively.
